# According to article PMC10967822, “Antimicrobial Indole-3-Carboxamido-Polyamine Conjugates Target Bacterial Membranes and Are Antibiotic Potentiators” (Biomolecules, 2024):
# Tests used:
# [1] = system: E. coli ATCC 25922; assay: MIC, broth dilution, E. coli; type: cell-based, Escherichia coli; details: Escherichia coli, ATCC25922; E. coli ATCC 25922, 18 h
# [2] = system: K. pneumoniae ATCC 700603; assay: MIC, broth microdilution (CO-ADD), K. pneumoniae; details: top dose 32 µg/mL
# [3] = system: A. baumannii ATCC 19606; assay: MIC, broth microdilution (CO-ADD), A. baumannii; type: cell-based, Acinetobacter baumannii; details: Acinetobacter baumannii, ATCC19606, top dose 32 µg/mL
# [4] = system: human red blood cells; assay: Hemolytic assay; type: cell-based; details: 10% hemolytic activity, mean n = 2
# Procedure: Human whole blood was washed three times with three volumes of 0.9% NaCl and then resuspended in the same solution to a concentration of 0.5 × 10^8 cells/mL, as determined by the manual cell count in a Neubauer hemocytometer. The washed cells were then added to the 384-well compound-containing plates for a final volume of 50 μL. After a 10 min shake on a plate shaker, the plates were then incubated for 1 h at 37 °C. After incubation, the plates were centrifuged at 1000× g for 10 min to pellet cells and debris; 25 μL of the supernatant was then transferred to a polystyrene 384-well assay plate. Hemolysis was determined by measuring the supernatant absorbance at […] (OD405). The absorbance was measured using a Tecan M1000 Pro monochromator plate reader. HC10 and HC50 (concentrations at 10% and 50% hemolysis, respectively) were calculated by a curve fitting the inhibition values vs. log (concentration) using a sigmoidal dose–response function with variable fitting values for the top, bottom, and slope.
# [5] = system: E. coli ATCC 25922; assay: Erythromycin potentiation against E. coli; type: cell-based, Escherichia coli; details: erythromycin at 2 µg/mL (2.7 µM); for Erythro/Ec fold-change (intrinsic MIC / combination MIC): E. coli; for Erythro/Ec: concentration required to restore erythromycin activity (combination MIC): mean n = 3
# Excerpt: (§1) These measurements were independently repeated in triplicate.
# [6] = system: P. aeruginosa ATCC 27853; assay: Doxycycline potentiation against P. aeruginosa; type: cell-based, Pseudomonas aeruginosa; details: doxycycline at 2 µg/mL (4.5 µM); for Dox/Pa fold-change (intrinsic MIC / combination MIC): P. aeruginosa ATCC 27853; for Dox/Pa: concentration required to restore doxycycline activity (combination MIC): P. aeruginosa ATCC 27853, mean n = 3
# Excerpt: as §1
# [7] = Cytotoxicity assay (resazurin); type: cell-based; details: human, HEK293 cells, mean n = 2
# [8] = system: MRSA ATCC 43300; assay: MIC, broth microdilution (CO-ADD), MRSA; type: cell-based, methicillin-resistant S. aureus; details: Staphylococcus aureus; MRSA ATCC 43300; top dose 32 µg/mL; read-out: MIC MRSA
# [9] = system: C. neoformans ATCC 208821; assay: Antifungal MIC (CO-ADD), C. neoformans; type: cell-based; details: Cryptococcus neoformans, ATCC208821, top dose 32 µg/mL
# Procedure: (§2) For the antifungal assay, fungi strains were cultured for 3 days on YPD agar at 30 °C. A yeast suspension of 1 × 10^6 to 5 × 10^6 CFU/mL was prepared from five colonies. These stock suspensions were diluted with a yeast nitrogen base (YNB) (Becton Dickinson, 233520, New South Wales, Australia) broth to a final concentration of 2.5 × 10^3 CFU/mL. […] The plates were covered and incubated at 35 °C for 36 h without shaking. C. albicans MICs were determined by measuring the absorbance at OD530. For C. neoformans, resazurin was added at a 0.006% final concentration to each well and incubated for a further 3 h before the MICs were determined by measuring the absorbance at OD570–600. […] Fluconazole was used as a positive fungal inhibitor standard for C. albicans and C. neoformans. […] The quality control (QC) of the assays was determined by the antimicrobial controls and the Z′-factor (using positive and negative controls).
# [10] = system: P. aeruginosa ATCC 27853; assay: MIC, broth dilution, P. aeruginosa; type: cell-based, Pseudomonas aeruginosa; details: Pseudomonas aeruginosa, ATCC27853; P. aeruginosa ATCC 27853, 18 h; read-out: MIC Pa
# [11] = system: C. albicans ATCC 90028; assay: Antifungal MIC (CO-ADD), C. albicans; type: cell-based; details: Candida albicans, ATCC90028, top dose 32 µg/mL
# Procedure: as §2
# [12] = system: S. aureus ATCC 25923; assay: MIC, broth dilution, S. aureus; type: cell-based, Staphylococcus aureus; details: Staphylococcus aureus, ATCC25923; S. aureus ATCC 25923, 18 h; read-out: MIC Sa
SMILES,MIC [1] [µM],MIC Kp [2] [µM],MIC [3] [µM],Erythro/Ec fold-change (intrinsic MIC / combination MIC) [5] [fold],Erythro/Ec: concentration required to restore erythromycin activity (combination MIC) [5] [µM],Dox/Pa fold-change (intrinsic MIC / combination MIC) [6] [fold],Dox/Pa: concentration required to restore doxycycline activity (combination MIC) [6] [µM],MIC [8] [µM],MIC [9] [µM],MIC [10] [µM],MIC [11] [µM],MIC [12] [µM],Hemolysis HC10 [4] [µM],IC50 at 20 h [7] [µM]
Cc1ccc2[nH]cc(C(=O)NCCCNCCCCCCNCCCNC(=O)c3c[nH]c4ccc(C)cc34)c2c1 [Compound 15b],129,>41,> 41,4,32.4,> 8,32.4,5.18,≤ 0.32,> 259,> 41,259,>41,> 41
COc1ccc2[nH]cc(C(=O)NCCCNCCCCCCCCNCCCNC(=O)c3c[nH]c4ccc(OC)cc34)c2c1 [Compound 14d],120,>38,> 38,0.5,240,> 8,30.0,19.2,≤ 0.3,> 240,> 38,60,>38,> 38
O=C(NCCCNCCCCCCCCNCCCNC(=O)c1c[nH]c2ccc(Br)cc12)c1c[nH]c2ccc(Br)cc12 [Compound 13d],53.7,>34,≤ 0.27,8,6.72,8,13.4,≤ 0.27,≤ 0.27,107,≤ 0.27,3.36,>34,> 34
COc1ccc2[nH]cc(C(=O)NCCCNCCCCCCCCCCCCNCCCNC(=O)c3c[nH]c4ccc(OC)cc34)c2c1.O=C(O)C(F)(F)F.O=C(O)C(F)(F)F [Compound 14f],14.1,>36,> 36,1,14.1,2,56.2,≤ 0.28,≤ 0.28,112,≤ 0.28,3.52,>36,> 36
O=C(NCCCNCCCCCCCCCCCCNCCCNC(=O)c1c[nH]c2ccc(Br)cc12)c1c[nH]c2ccc(Br)cc12.O=C(O)C(F)(F)F.O=C(O)C(F)(F)F [Compound 13f],> 203,≤0.25,2.03,> 8,25.3,4,50.7,≤ 0.25,≤ 0.25,203,≤ 0.25,3.17,14.2,≤ 0.25
COc1ccc2[nH]cc(C(=O)NCCCNCCCCCCCCCCNCCCNC(=O)c3c[nH]c4ccc(OC)cc34)c2c1.O=C(O)C(F)(F)F.O=C(O)C(F)(F)F [Compound 14e],58.1,>37,> 37,0.5,116,8,29.0,≤ 0.29,≤ 0.29,232,> 37,29,>37,> 37

# The next lines start with results.
MIC [1] [µM],MIC Kp [2] [µM],MIC [3] [µM],Erythro/Ec fold-change (intrinsic MIC / combination MIC) [5] [fold],Erythro/Ec: concentration required to restore erythromycin activity (combination MIC) [5] [µM],Dox/Pa fold-change (intrinsic MIC / combination MIC) [6] [fold],Dox/Pa: concentration required to restore doxycycline activity (combination MIC) [6] [µM],MIC [8] [µM],MIC [9] [µM],MIC [10] [µM],MIC [11] [µM],MIC [12] [µM],SMILES,Hemolysis HC10 [4] [µM],IC50 at 20 h [7] [µM]
247,>40,> 40,1,247,> 8,30.9,9.89,≤ 0.31,247,> 40,247,O=C(NCCCNCCCCCCCCNCCCNC(=O)c1c[nH]c2c(F)cccc12)c1c[nH]c2c(F)cccc12 [Compound 16d],>40,> 40
244,>39,> 39,1,244,> 8,30.5,2.44,≤ 0.31,> 244,> 39,122,COc1cccc2c(C(=O)NCCCNCCCCCCCNCCCNC(=O)c3c[nH]c4c(OC)cccc34)c[nH]c12.O=C(O)C(F)(F)F.O=C(O)C(F)(F)F [Compound 17c],>39,> 39
28.1,>36,> 36,0.5,56.2,4,56.2,≤ 0.28,≤ 0.28,225,4.5,7.03,COc1cccc2c(C(=O)NCCCNCCCCCCCCCCCCNCCCNC(=O)c3c[nH]c4c(OC)cccc34)c[nH]c12.O=C(O)C(F)(F)F.O=C(O)C(F)(F)F [Compound 17f],>36,> 36
> 251,>40,> 40,1,252,> 4,62.9,≤ 0.31,≤ 0.31,251,> 40,> 251,O=C(NCCCNCCCCCCCNCCCNC(=O)c1c[nH]c2c(F)cccc12)c1c[nH]c2c(F)cccc12 [Compound 16c],>40,> 40
30.2,>39,19.3,4,7.54,4,15.1,≤ 0.3,≤ 0.3,60.3,≤ 0.3,3.77,Cc1ccc2[nH]cc(C(=O)NCCCNCCCCCCCCCCNCCCNC(=O)c3c[nH]c4ccc(C)cc34)c2c1 [Compound 15e],>39,> 39
